Here are results for 15 compounds from US20240400591A1 (Jacobio Pharmaceuticals Co., Ltd., priority 2021, published 2024).

Test [1] concerns NUGC4 (P53 WT). In words: Cell viability assay (CellTiter-Glo, 6 days), NUGC4. The test is classed as cell-based. The essentials: (§1)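 After a 6-day compound exposure following overnight plating, ATP luminescence (CellTiter-Glo) gave percent viability relative to DMSO-treated cells and cell-free medium controls. IC50 = concentration at 50% viability, from 4-parameter logistic or Excel fit.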
In general terms: ATP-based viability assays read luminescence as a measure of living cells.

In test [2] the test system is NUGC-3_P53_Luc single clonal cell line (p53 Y220C). Briefly: Reporter gene assay (p53 RE luciferase). The test is classed as cell-based. The essentials: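 Luminescence normalised to DMSO-only (0%) and 10 μM Ref-1a (100%) wells gives % activity, fitted by 4-parameter logistic or Excel to yield EC50 at 50%. Reporter line: NUGC-3 with p53 response element-luc2P, compound-treated 6 h at 37 °C.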
Background: A reporter such as luciferase makes a cellular process visible.

Test [3] has as its target T1, His-p53 Y220C (94-294) protein (Homo sapiens, UniProt P04637, Y220C).
T1 construct: His-p53 Y220C (94-294) protein
In words: In vitro DNA binding assay (HTRF). The test is classed as biochemical. The note with it: % activation normalized to 2 μM Ref-1a high control. In general terms: TR-FRET usually uses a lanthanide donor and a delayed reading to cut background.

The test system of test [4] is NUGC3 (P53 Y220C). Briefly: Cell viability assay (CellTiter-Glo, 6 days), NUGC3. In kind it is cell-based. Summed up: as §1
[5] abbreviates: Homo sapiens, NUGC-4, 144 h, cell viability, 6 days, CellTiter-Glo, read-out: NUGC4 (P53 WT) IC50.
The mark [6] stands for this setting: Homo sapiens, NUGC-3, 6 h, luciferase reporter, 6 hours, normalized to Ref-1a (10 μM) high control, read-out: p53(Y220C)_NUGC-3 EC50.
The mark [7] stands for this setting: Homo sapiens, NUGC-3, 144 h, cell viability, 6 days, CellTiter-Glo, read-out: NUGC3 (P53 Y220C) IC50.
Setting [8] is: Homo sapiens, NUGC-3, luciferase reporter, 6 hours, normalized to Ref-1a (10 μM) high control, read-out: p53(Y220C)_NUGC-3 EC50.

The structures appear in SMILES notation. Read-outs that look alike come from different tables or passages of the source.

In the case of `COc1cc(P(C)(C)=O)ccc1NCC#Cc1sc2c(N[C@@H]3CCN(C)C[C@H]3C)cccc2c1CC(F)(F)F` [Example 128, (4-((3-(7-(((3R,4R)-1,3-dimethylpiperidin-4-yl)amino)-3-(2,2,2-trifluoroethyl)benzo[b]thiophen-2-yl)prop-2-yn-1-yl)amino)-3-methoxyphenyl)dimethylphosphine oxide], the figures for the concentration for half-maximal inhibition (IC50) in test [1] (setting [5]) and in test [4] (setting [7]) were 2.26 µM and 0.87 µM, respectively. In addition, the values for the EC50 in test [2] (setting [6]) and in test [3] were 0.1 µM and 53 nM, respectively.

`COc1cc(C(=O)NC2CCN(C)CC2F)ccc1NCC#Cc1sc2c(NC3CCN(C)CC3F)cccc2c1CC(F)(F)F` (stereo not drawn) [Example 68, N-(3-fluoro-1-methylpiperidin-4-yl)-4-((3-(7-(((Z)-3-fluoro-1-methylpiperidin-4-yl)amino)-3-(2,2,2-trifluoroethyl)benzo[b]thiophen-2-yl)prop-2-yn-1-yl)amino)-3-methoxybenzamide]: the IC50 in test [1] (cell viability, 6 days, CellTiter-Glo, read-out: NUGC4 (P53 WT) IC50) worked out at 1.39 µM; in test [4] (cell viability, 6 days, CellTiter-Glo, read-out: NUGC3 (P53 Y220C) IC50) it was 1.08 µM. For the same compound, the EC50 in test [2] (luciferase reporter, 6 hours, normalized to Ref-1a (10 μM) high control, read-out: p53(Y220C)_NUGC-3 EC50) stood at 0.64 µM; in test [3] it was 44 nM.

Regarding `COc1cc(P(=O)(C2CC2)C2CC2)ccc1NCC#Cc1sc2c(N[C@@H]3CCN(C)C[C@@H]3F)cccc2c1CC(F)(F)F` (racemic) [Example 99, dicyclopropyl(4-((3-(7-(((Z)-3-fluoro-1-methylpiperidin-4-yl)amino)-3-(2,2,2-trifluoroethyl)benzo[b]thiophen-2-yl)prop-2-yn-1-yl)amino)-3-methoxyphenyl)phosphine oxide], the IC50 in test [1] (Homo sapiens, NUGC-4, 144 h, read-out: NUGC4 (P53 WT) IC50 (μM)) came out at 6.58 µM; in test [4] (Homo sapiens, NUGC-3, 144 h, read-out: NUGC3 (P53 Y220C) IC50 (μM)), 1.44 µM. Moreover, the concentration giving a half-maximal response (EC50) turned out to be 0.15 µM in test [2] (Homo sapiens, NUGC-3, 6 h, read-out: p53(Y220C)_NUGC-3 EC50 (μM)) and 87 nM in test [3].

On to `COc1c(NCC#Cc2sc3c(N[C@@H]4CCN(C)C[C@@H]4F)cccc3c2CC(F)(F)F)ccc(P(C)(C)=O)c1F` [Example 194, (2-fluoro-4-((3-(7-(((3S,4R)-3-fluoro-1-methylpiperidin-4-yl)amino)-3-(2,2,2-trifluoroethyl)benzo[b]thiophen-2-yl)prop-2-yn-1-yl)amino)-3-methoxyphenyl)dimethylphosphine oxide], for which the values for the IC50 in test [1] (setting [5]) and in test [4] (setting [7]) were 12.2 µM and 1.75 µM, respectively. For the same compound, the results for the EC50 in test [2] (setting [8]) and in test [3] were 0.15 µM and 33 nM, respectively.

Consider `COc1cc(P2(=O)CCN(C(=O)C3CC3)CC2)ccc1NCC#Cc1sc2c(N[C@@H]3CCN(C)C[C@@H]3F)cccc2c1CC(F)(F)F` [Example 149, cyclopropyl(4-(4-((3-(7-(((3S,4R)-3-fluoro-1-methylpiperidin-4-yl)amino)-3-(2,2,2-trifluoroethyl)benzo[b]thiophen-2-yl)prop-2-yn-1-yl)amino)-3-methoxyphenyl)-4-oxido-1,4-azaphosphinan-1-yl)methanone], for which the IC50 in test [1] (setting [5]) turned out to be 3.7 µM; in test [4] (setting [7]), 0.37 µM. For the same compound, the EC50 stood at 0.09 µM in test [2] (setting [8]) and 46 nM in test [3].

Regarding `COc1nc(P(C)(C)=O)ccc1NCC#Cc1sc2c(N[C@@H]3CCN(C)C[C@@H]3F)cccc2c1CC(F)(F)F` [Example 153, (5-((3-(7-(((3S,4R)-3-fluoro-1-methylpiperidin-4-yl)amino)-3-(2,2,2-trifluoroethyl)benzo[b]thiophen-2-yl)prop-2-yn-1-yl)amino)-6-methoxypyridin-2-yl)dimethylphosphine oxide], the IC50 in test [1] (setting [5]) was determined as 4.07 µM; in test [4] (setting [7]), 0.37 µM. Also, the EC50 was determined as 0.1 µM in test [2] (setting [8]) and 31 nM in test [3].

As to `CCN1CC[C@@H](Nc2cccc3c(CC(F)(F)F)c(C#CCNc4ccc(P(C)(C)=O)cc4OC)sc23)[C@@H](F)C1` [Example 135, (4-((3-(7-(((3S,4R)-1-ethyl-3-fluoropiperidin-4-yl)amino)-3-(2,2,2-trifluoroethyl)benzo[b]thiophen-2-yl)prop-2-yn-1-yl)amino)-3-methoxyphenyl)dimethylphosphine oxide], the IC50 came to 3.62 µM in test [1] (setting [5]) and 1.16 µM in test [4] (setting [7]). The EC50 in test [2] (setting [6]) is 0.04 µM; in test [3] it was 26 nM.

Take `CN1CC[C@@H](Nc2cccc3c(CC(F)(F)F)c(C#CCNc4ccc(P(C)(C)=O)c5c4OCC5)sc23)[C@@H](F)C1` [Example 187, (7-((3-(7-(((3S,4R)-3-fluoro-1-methylpiperidin-4-yl)amino)-3-(2,2,2-trifluoroethyl)benzo[b]thiophen-2-yl)prop-2-yn-1-yl)amino)-2,3-dihydrobenzofuran-4-yl)dimethylphosphine oxide]: the IC50 in test [1] (setting [5]) came out at 5.32 µM; in test [4] (setting [7]), 0.29 µM. Moreover, the EC50 in test [2] (setting [8]) was 0.05 µM; in test [3], 33 nM.

Regarding `COc1cc(P(C)(C)=O)ccc1NCC#Cc1sc2c(N[C@H]3CCN(C)C[C@H]3F)cccc2c1CC(F)(F)F` [Example 114, (4-((3-(7-(((3R,4S)-3-fluoro-1-methylpiperidin-4-yl)amino)-3-(2,2,2-trifluoroethyl)benzo[b]thiophen-2-yl)prop-2-yn-1-yl)amino)-3-methoxyphenyl)dimethylphosphine oxide], the 50% inhibitory concentration (IC50) in test [1] (setting [5]) is 10.5 µM; in test [4] (setting [7]) it was 1.24 µM. The EC50 in test [2] (setting [6]) stood at 0.12 µM; in test [3], 57 nM.

`COc1cc(P(=O)(C2CC2)C2CC2)ccc1NCC#Cc1sc2c(N[C@@H]3CCN(C)C[C@@H]3F)cccc2c1CC(F)(F)F` [Example 141, dicyclopropyl(4-((3-(7-(((3S,4R)-3-fluoro-1-methylpiperidin-4-yl)amino)-3-(2,2,2-trifluoroethyl)benzo[b]thiophen-2-yl)prop-2-yn-1-yl)amino)-3-methoxyphenyl)phosphine oxide]: the IC50 in test [1] (setting [5]) worked out at 9.06 µM; in test [4] (setting [7]), 1.13 µM. The EC50 was found to be 0.09 µM in test [2] (setting [6]) and 49 nM in test [3].

As for `COc1cc(-c2ncn(C)n2)ccc1NCC#Cc1sc2c(N[C@@H]3CCN(C)C[C@@H]3F)cccc2c1CC(F)(F)F` [Example 172, (3S,4R)-3-fluoro-N-(2-(3-((2-methoxy-4-(1-methyl-1H-1,2,4-triazol-3-yl)phenyl)amino)prop-1-yn-1-yl)-3-(2,2,2-trifluoroethyl)benzo[b]thiophen-7-yl)-1-methylpiperidin-4-amine], the IC50 in test [1] (setting [5]) was found to be 7.55 µM; in test [4] (setting [7]) it was 1.51 µM. Besides, the values for the EC50 in test [2] (setting [8]) and in test [3] were 0.18 µM and 60 nM, respectively.

For the compound `COc1cc(S(C)(=O)=O)ccc1NCC#Cc1cc2c(N[C@H]3CCN(C)C[C@H]3F)cccc2n1CC(F)(F)F` [Ref-1b, N-((3R,4S)-3-fluoro-1-methylpiperidin-4-yl)-2-(3-((2-methoxy-4-(methylsulfonyl)phenyl)amino)prop-1-yn-1-yl)-1-(2,2,2-trifluoroethyl)-1H-indol-4-amine, reference compound], the IC50 worked out at 12.5 µM in test [1] (setting [5]) and 1.92 µM in test [4] (setting [7]). Also, the EC50 was determined as 0.2 µM in test [2] (setting [8]) and 96 nM in test [3].

For the compound `COc1cc(P(C)(C)=O)ccc1NCC#Cc1sc2c(N[C@@H]3CCN(C)C[C@@H]3Cl)cccc2c1CC(F)(F)F` [Example 158, (3S,4R)-3-chloro-N-[2-[3-(4-dimethylphosphoryl-2-methoxy-anilino)prop-1-ynyl]-3-(2,2,2-trifluoroethyl)benzothiophen-7-yl]-1-methyl-piperidin-4-amine], the IC50 in test [1] (setting [5]) was 3.95 µM; in test [4] (setting [7]), 0.37 µM. For the same compound, the values for the 50% effective concentration (EC50) in test [2] (setting [6]) and in test [3] were 0.09 µM and 30 nM, respectively.

As to `COc1cc(P(C)(C)=O)ccc1NCC#Cc1sc2c(N[C@H]3CCN(C4CCOCC4)C[C@H]3F)cccc2c1CC(F)(F)F` [Example 148, (4-((3-(7-(((3R,4S)-3-fluoro-1-(tetrahydro-2H-pyran-4-yl)piperidin-4-yl)amino)-3-(2,2,2-trifluoroethyl)benzo[b]thiophen-2-yl)prop-2-yn-1-yl)amino)-3-methoxyphenyl)dimethylphosphine oxide], the IC50 amounted to 3.08 µM in test [1] (setting [5]) and 1.56 µM in test [4] (setting [7]). For the same compound, the EC50 in test [2] (setting [6]) was determined as 0.21 µM; in test [3] it was 147 nM.

Consider `CN1CC[C@@H](Nc2cccc3c(CC(F)(F)F)c(C#CCNc4ccc(P(C)(C)=O)cc4OC4CC4)sc23)[C@@H](F)C1` [Example 150, (3-cyclopropoxy-4-((3-(7-(((3S,4R)-3-fluoro-1-methylpiperidin-4-yl)amino)-3-(2,2,2-trifluoroethyl)benzo[b]thiophen-2-yl)prop-2-yn-1-yl)amino)phenyl)dimethylphosphine oxide], for which the values for the half-inhibitory concentration (IC50) in test [1] (setting [5]) and in test [4] (setting [7]) were 9.92 µM and 0.39 µM, respectively. In addition, the EC50 turned out to be 0.08 µM in test [2] (setting [8]) and 35 nM in test [3].

As a reminder, the IC50 is the point on the concentration scale where inhibition reaches its midpoint. What is called EC50 is the concentration that produces a half-maximal response.
